From ChEMBL document CHEMBL1201862, “PubChem BioAssay data set” (2004)
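Briefly, cells in 96-well plates were exposed to five compound concentrations for 48 h, and endpoints were estimated by linear interpolation. At the GI50, growth is halved.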 The source made the active and inactive calls. No stated cut-off is given here; in the data, active = GI50 up to about 1.1 µM and inactive = higher.

Key:
Test in all cases: NCI anticancer screen, dose series, 48 h
MDA-MB-231 = tested on: MDA-MB-231
U-251 = tested on: U-251
PC-3 = tested on: PC-3
NCI-H23 = tested on: NCI-H23
HCT-116 = tested on: HCT-116
T47D = tested on: T47D
MDA-MB-435 = tested on: MDA-MB-435
SF-295 = tested on: SF-295
RPMI-8226 = tested on: RPMI-8226
SNB-19 = tested on: SNB-19
SK-MEL-5 = tested on: SK-MEL-5
SK-MEL-2 = tested on: SK-MEL-2
HT-29 = tested on: HT-29
MOLT-4 = tested on: MOLT-4
SK-MEL-28 = tested on: SK-MEL-28
SW-620 = tested on: SW-620
EKVX = tested on: EKVX
OVCAR-8 = tested on: OVCAR-8
UACC-257 = tested on: UACC-257

Measured: GI50

COc1cc(C(c2cc3c(cc2O)OCO3)N2CCCC2)cc(OC)c1OC (stereo not given)
inactive: MDA-MB-231 15.9 µM | U-251 16.9 µM | PC-3 17.3 µM | NCI-H23 17.5 µM | HCT-116 15.4 µM | T47D 23.2 µM | MDA-MB-435 13.4 µM | SF-295 18.6 µM | RPMI-8226 11.6 µM | SNB-19 19.3 µM | SK-MEL-5 16.4 µM | SK-MEL-2 19.6 µM | HT-29 10.4 µM | MOLT-4 3.96 µM | SK-MEL-28 23.3 µM | SW-620 3.4 µM | EKVX 14.7 µM | OVCAR-8 16.1 µM | UACC-257 17.5 µM

O=CCCCCCOCc1ccccc1
inactive: MDA-MB-231 > 87.1 µM | U-251 69.5 µM | PC-3 > 100 µM | NCI-H23 50.7 µM | HCT-116 27 µM | T47D > 100 µM | MDA-MB-435 > 100 µM | SF-295 30.6 µM | RPMI-8226 25.1 µM | SNB-19 > 87.1 µM | SK-MEL-5 25.4 µM | SK-MEL-2 > 100 µM | HT-29 > 100 µM | MOLT-4 16.9 µM | SK-MEL-28 > 100 µM | SW-620 60.1 µM | EKVX > 100 µM | OVCAR-8 > 69.8 µM | UACC-257 > 60.8 µM

c1ccc(-c2nnc(SCc3c[nH]c4ccccc34)n2-c2ccccc2)cc1
inactive: MDA-MB-231 29.4 µM | U-251 24.2 µM | PC-3 21.4 µM | NCI-H23 41.4 µM | HCT-116 35.6 µM | T47D 20 µM | MDA-MB-435 34.6 µM | SF-295 19.6 µM | RPMI-8226 > 100 µM | SNB-19 42.1 µM | SK-MEL-5 15 µM | SK-MEL-2 29.2 µM | HT-29 8 µM | MOLT-4 8.11 µM | SK-MEL-28 75.3 µM | SW-620 85.1 µM | EKVX 21.8 µM | OVCAR-8 30.7 µM | UACC-257 23.8 µM

Nc1nc(Cl)cc(NCC2(CO)CCC(O)C2)n1 (stereo not given)
inactive: MDA-MB-231 > 100 µM | U-251 > 100 µM | PC-3 > 100 µM | NCI-H23 > 100 µM | HCT-116 > 100 µM | T47D > 100 µM | MDA-MB-435 > 100 µM | SF-295 > 100 µM | RPMI-8226 > 100 µM | SNB-19 > 100 µM | SK-MEL-5 > 100 µM | SK-MEL-2 > 100 µM | HT-29 > 100 µM | MOLT-4 > 100 µM | SK-MEL-28 > 100 µM | SW-620 > 100 µM | EKVX > 100 µM | OVCAR-8 > 100 µM | UACC-257 > 100 µM

CCCCn1c(C)c(C(=O)OCC)s/c1=N/Nc1nc2ccccc2nc1-c1ccccc1
inactive: MDA-MB-231 39.3 µM | U-251 43.6 µM | PC-3 30.9 µM | NCI-H23 92.9 µM | HCT-116 > 100 µM | T47D 52.1 µM | MDA-MB-435 > 100 µM | SF-295 43.3 µM | RPMI-8226 86.3 µM | SNB-19 40.6 µM | SK-MEL-5 46.8 µM | SK-MEL-2 > 100 µM | HT-29 > 100 µM | MOLT-4 > 100 µM | SK-MEL-28 > 100 µM | SW-620 > 100 µM | EKVX > 100 µM | OVCAR-8 56.2 µM | UACC-257 > 100 µM

CCCN(CCC)C(=O)c1c(N2CCN(C)CC2)c2cccnc2n2c(C)cnc12
inactive: MDA-MB-231 > 100 µM | U-251 > 100 µM | PC-3 > 100 µM | NCI-H23 > 100 µM | HCT-116 > 100 µM | T47D 14.8 µM | MDA-MB-435 > 100 µM | SF-295 > 100 µM | RPMI-8226 > 100 µM | SNB-19 27.5 µM | SK-MEL-5 > 100 µM | SK-MEL-2 > 100 µM | HT-29 > 100 µM | MOLT-4 85.9 µM | SK-MEL-28 > 100 µM | SW-620 17.5 µM | EKVX > 100 µM | OVCAR-8 > 100 µM | UACC-257 > 100 µM

O=C(Nc1sccc1S(=O)(=O)c1ccc(Cl)cc1)c1ccc(F)cc1F
inactive: MDA-MB-231 20.7 µM | U-251 19.2 µM | PC-3 27.2 µM | NCI-H23 21 µM | HCT-116 45.8 µM | T47D 31.8 µM | MDA-MB-435 > 100 µM | SF-295 23.3 µM | RPMI-8226 62.8 µM | SNB-19 21.9 µM | SK-MEL-5 49.4 µM | SK-MEL-2 18.9 µM | HT-29 > 100 µM | MOLT-4 20.4 µM | SK-MEL-28 > 100 µM | SW-620 73.1 µM | EKVX 19.6 µM | OVCAR-8 30.9 µM | UACC-257 > 100 µM

NCCCCCNOCCCN
inactive: MDA-MB-231 > 100 µM | U-251 > 100 µM | PC-3 > 100 µM | NCI-H23 > 100 µM | HCT-116 > 100 µM | T47D > 100 µM | MDA-MB-435 > 100 µM | SF-295 > 100 µM | RPMI-8226 > 100 µM | SNB-19 > 100 µM | SK-MEL-5 > 100 µM | SK-MEL-2 > 100 µM | HT-29 > 100 µM | MOLT-4 > 100 µM | SK-MEL-28 > 100 µM | SW-620 > 100 µM | EKVX > 100 µM | OVCAR-8 > 100 µM | UACC-257 > 100 µM

Cc1cccc(/N=N/c2c(C)nn(C(=O)CC(=O)Nc3ccccc3)c2C)c1
inactive: MDA-MB-231 > 100 µM | U-251 > 100 µM | PC-3 > 100 µM | NCI-H23 > 100 µM | HCT-116 > 100 µM | T47D > 100 µM | MDA-MB-435 > 100 µM | SF-295 > 100 µM | RPMI-8226 > 100 µM | SNB-19 > 100 µM | SK-MEL-5 > 100 µM | SK-MEL-2 > 100 µM | HT-29 > 100 µM | MOLT-4 > 100 µM | SK-MEL-28 > 100 µM | SW-620 > 100 µM | EKVX > 100 µM | OVCAR-8 > 100 µM | UACC-257 > 10 µM

CCN1CCC(O)(c2ccc(Oc3ccc(Cl)cc3)cc2)C(C(=O)c2ccc(Oc3ccc(Cl)cc3)cc2)C1 (stereo not given)
inactive: MDA-MB-231 14.7 µM | U-251 > 10 µM | PC-3 9.57 µM | NCI-H23 11.7 µM | HCT-116 3.78 µM | T47D 14.7 µM | MDA-MB-435 16.4 µM | SF-295 12.4 µM | RPMI-8226 3.37 µM | SNB-19 14.5 µM | SK-MEL-5 12.2 µM | SK-MEL-2 21.9 µM | HT-29 5.07 µM | MOLT-4 8.45 µM | SK-MEL-28 20.5 µM | SW-620 12.8 µM | EKVX 16.8 µM | OVCAR-8 17.1 µM | UACC-257 13.3 µM

O=[N+]([O-])C(=C1NCCN1)/C(Cl)=C(\Cl)Br
inactive: MDA-MB-231 > 60.3 µM | U-251 49.3 µM | PC-3 > 59.4 µM | NCI-H23 > 49.8 µM | HCT-116 28.8 µM | T47D 17.5 µM | MDA-MB-435 29.4 µM | SF-295 > 100 µM | RPMI-8226 22.4 µM | SNB-19 > 100 µM | SK-MEL-5 51.9 µM | SK-MEL-2 45.6 µM | HT-29 30.1 µM | MOLT-4 22.3 µM | SK-MEL-28 32 µM | SW-620 13.5 µM | EKVX > 43.4 µM | OVCAR-8 40.3 µM | UACC-257 > 49.8 µM

CN(C)CCNc1nc(-c2ccc3ccccc3c2)nc2[nH]cnc12
inactive: MDA-MB-231 11.2 µM | U-251 13.1 µM | PC-3 4.76 µM | NCI-H23 11.7 µM | HCT-116 8.83 µM | T47D 12.5 µM | MDA-MB-435 11 µM | SF-295 13.7 µM | RPMI-8226 22.2 µM | SNB-19 14 µM | SK-MEL-5 10.7 µM | SK-MEL-2 14.6 µM | HT-29 3.84 µM | MOLT-4 3.55 µM | SK-MEL-28 13.6 µM | SW-620 11.4 µM | EKVX 4.55 µM | OVCAR-8 10.8 µM | UACC-257 6.9 µM

COc1ccc2c(C(=O)c3c(C)n(CCN4CCOCC4)c4ccccc34)cccc2c1
inactive: MDA-MB-231 22.6 µM | U-251 15.3 µM | PC-3 12.7 µM | NCI-H23 18.8 µM | HCT-116 25.5 µM | T47D 17.4 µM | MDA-MB-435 5.6 µM | SF-295 16.8 µM | RPMI-8226 24.7 µM | SNB-19 46.1 µM | SK-MEL-5 17.5 µM | SK-MEL-2 21.3 µM | HT-29 21 µM | MOLT-4 19.4 µM | SK-MEL-28 > 100 µM | SW-620 1.27 µM | EKVX 31.6 µM | OVCAR-8 18.8 µM | UACC-257 20.3 µM

C=C1c2cc3c(cc2CC12Cc1cc4c(cc1C2=O)CCC4)CCC3 (stereo not given)
inactive: MDA-MB-231 > 100 µM | U-251 > 100 µM | PC-3 > 100 µM | NCI-H23 > 100 µM | HCT-116 > 100 µM | T47D > 100 µM | MDA-MB-435 > 100 µM | SF-295 > 100 µM | RPMI-8226 > 100 µM | SNB-19 > 100 µM | SK-MEL-5 > 100 µM | SK-MEL-2 > 100 µM | HT-29 > 100 µM | MOLT-4 > 100 µM | SK-MEL-28 > 100 µM | SW-620 > 100 µM | EKVX > 100 µM | OVCAR-8 > 100 µM | UACC-257 > 100 µM

COc1ccc(Nc2nc3cc(C(F)(F)F)ccc3n3cccc23)cc1OC
inactive: MDA-MB-231 17.8 µM | U-251 15.2 µM | PC-3 10.6 µM | NCI-H23 17.6 µM | HCT-116 12.1 µM | T47D 6.37 µM | MDA-MB-435 15.7 µM | SF-295 10.3 µM | RPMI-8226 13.6 µM | SNB-19 19.4 µM | SK-MEL-5 14.5 µM | SK-MEL-2 15.5 µM | HT-29 8.99 µM | MOLT-4 7.85 µM | SK-MEL-28 28.2 µM | SW-620 34.7 µM | EKVX 20.3 µM | OVCAR-8 23.3 µM | UACC-257 17.5 µM
